Assay results from US11214803B2, “Modulators of YAP1 expression” (Ionis Pharmaceuticals, Inc., priority 2019, dated 2022).
Strand notation (5' to 3'): a small letter for the sugar, then the base; units joined by * are phosphorothioate-linked, units joined directly phosphodiester-linked; [ ] holds rarer units or linkages, { } end groups; capitals alone tell only the bases. e = 2'-O-(2-methoxyethyl) (MOE); k = constrained ethyl (cEt); [5mC] = 5-methylcytosine; d = 2'-deoxy (DNA); m = 2'-O-methyl

How the values were obtained:
Yap1 mRNA [1] = experiment: Antisense inhibition of human Yap1 in SNU-449 cells by modified oligonucleotides, single dose (Example 5, RTS36584); assay type: cell-based
Procedure, shortened: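 Plate SNU-449 cells at 10,000 per well; add 2,000 nM modified oligonucleotide without transfection reagent; after ~48 h isolate RNA, run qRT-PCR with RTS36584, normalise to RIBOGREEN and report % UTC.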

Yap1 mRNA [2] = experiment: Antisense inhibition of human Yap1 in A-431 cells by cEt gapmers, single dose (Example 2, RTS4814); assay type: cell-based
Procedure, shortened: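 Single-dose knockdown screen of 3-10-3 cEt phosphorothioate gapmers at 2,000 nM added by free uptake to A-431 cells. After roughly 48 h, RNA was isolated and Yap1 transcript measured by RT-qPCR, with results given as % UTC.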

[3] = Table 48, Yap1 mRNA level relative to untreated control, modified oligonucleotides targeting SEQ ID NO.: 1 and 2
[4] = Yap1 mRNA, percent of untreated control, modified oligonucleotides targeting SEQ ID NO: 1 and 2, Table 47
[5] = Table 39, SNU-449 cells, 10,000 cells per well, free uptake, 2,000 nM oligonucleotide, approx. 48 hours, RTS36584, normalized to RIBOGREEN, Yap1 mRNA relative to untreated control
[6] = Table 49, Yap1 mRNA level relative to untreated control, modified oligonucleotides targeting SEQ ID NO.: 1 and 2
[7] = Table 42 (separate experiment), SNU-449 cells, 10,000 cells per well, free uptake, 2,000 nM modified oligonucleotide, approximately 48 hours, RTS36584, normalized to RIBOGREEN, Yap1 mRNA relative to untreated control cells
[8] = Table 40 (separate experiment), SNU-449 cells, 10,000 cells per well, free uptake, 2,000 nM oligonucleotide, approx. 48 hours, RTS36584, normalized to RIBOGREEN, Yap1 mRNA relative to untreated control
[9] = Table 43 experiment, SNU-449 cells, 10,000 cells per well, free uptake, 2,000 nM, approximately 48 hours, RTS36584, Yap1 mRNA normalized to RIBOGREEN, relative to untreated control cells
[10] = Table 45, Yap1 mRNA as percent of untreated control, SNU-449 cells, single dose
[11] = Table 51, Yap1 mRNA remaining as percent of untreated control (UT), SNU-449 cells, single dose

1074727 (antisense kG*kA*kG*dG*dT*dA*dT*dA*dA*d[5mC]*dT*dG*dG*kG*k[5mC]*kA) [Compound 1074727]
YAP1 (% UT) (Yap1 mRNA [1]; [3]): 51 % UT | YAP1 (% UTC) (Yap1 mRNA [2]; Table 21, Yap1 mRNA, percent of untreated control, 3-10-3 cEt gapmers targeting SEQ ID NO.: 1 and 2): 9 % UTC

1076453 (kG*kT*kA*dA*dT*dA*dT*dT*dG*d[5mC]*dA*dA*dT*k[5mC]*kT*kG) [Compound 1076453]
YAP1 (% UT) (Yap1 mRNA [1]; [4]): 7 % UT | YAP1 (% UTC) (Yap1 mRNA [2]; Table 19, A-431 cells, 5,000 cells per well, free uptake, 2,000 nM modified oligonucleotide, approx. 48 hours, RTS4814, normalized to RIBOGREEN, Yap1 mRNA as percent of untreated control): 1 % UTC

716444 (kA*kA*kA*dT*dT*dG*dT*d[5mC]*dT*d[5mC]*dA*dT*dG*k[5mC]*k[5mC]*kT) [Compound 716444]
YAP1 (% UT) (Yap1 mRNA [1]; [4]): 46 % UT | YAP1 (% UTC) (Yap1 mRNA [2]; Table 6, A-431 cells, 5,000 cells per well, free uptake, 2,000 nM modified oligonucleotide, approx. 48 hours, RTS4814, normalized to RIBOGREEN, Yap1 mRNA relative to untreated control cells): 40 % UTC

1074726 (antisense kG*kG*kT*dA*dT*dA*dA*d[5mC]*dT*dG*dG*dG*d[5mC]*kA*kA*kA) [Compound 1074726]
YAP1 (% UT) (Yap1 mRNA [1]; [3]): 23 % UT | YAP1 (% UTC) (Yap1 mRNA [2]; Table 20, Yap1 mRNA, percent of untreated control, 3-10-3 cEt gapmers targeting SEQ ID NO.: 1 and 2): 2 % UTC

1074728 (antisense kT*kG*kA*dG*dG*dT*dA*dT*dA*dA*d[5mC]*dT*dG*kG*kG*k[5mC]) [Compound 1074728]
YAP1 (% UT) (Yap1 mRNA [1]; [3]): 14 % UT | YAP1 (% UTC) (Yap1 mRNA [2]; Table 22, Yap1 mRNA as percent of untreated control, 3-10-3 cEt gapmers, single dose): 3 % UTC

1074756 (kG*k[5mC]*kA*d[5mC]*dT*dT*dT*dT*dA*d[5mC]*dA*dT*dT*kA*kG*kG) [Compound 1074756]
YAP1 (% UT) (Yap1 mRNA [1]; [4]): 8 % UT | YAP1 (% UTC) (Yap1 mRNA [2]; Table 18, A-431 cells, 5,000 cells per well, free uptake, 2,000 nM modified oligonucleotide, approx. 48 hours, RTS4814, normalized to RIBOGREEN, Yap1 mRNA as percent of untreated control): 3 % UTC

1198410 (kA*dT*dA*dG*dT*dG*d[5mC]*dT*dT*dT*dG*kG*eA*kA*eG*kA; antisense) [Compound 1198410]
YAP1 (% UTC) (Yap1 mRNA [1]; [5]): 48 % UTC

1198568 (antisense kA*k[5mC]*kT*dT*dT*dT*dA*d[5mC]*dA*dT*dT*dA*kG*kG*kA*eA) [Compound 1198568]
YAP1 (% UT) (Yap1 mRNA [1]; [6]): 31 % UT

1198341 (k[5mC]*kA*kA*d[5mC]*dT*d[5mC]*dT*dT*dA*dT*dA*dT*kG*eG*kT*eT; antisense) [Compound 1198341]
YAP1 (% UT) (Yap1 mRNA [1]; [6]): 90 % UT

1198705 (kT*kA*dA*dG*dG*dT*dT*dT*d[5mC]*d[5mC]*d[5mC]*dA*kG*eA*kT*eT; antisense) [Compound 1198705]
YAP1 (% UTC) (Yap1 mRNA [1]; [7]): 70 % UTC

1198719 (kG*eG*kA*dA*dA*dT*dT*dG*dT*d[5mC]*dT*d[5mC]*eA*eT*kG*k[5mC]; antisense) [Compound 1198719]
YAP1 (% UTC) (Yap1 mRNA [1]; [8]): 14 % UTC

1198278 (kT*kA*dA*dG*dT*dA*dA*dG*dG*dT*dT*eT*e[5mC]*e[5mC]*k[5mC]*kA; antisense) [Compound 1198278]
YAP1 (% UTC) (Yap1 mRNA [1]; [9]): 43 % UTC

1074461 (kG*kA*kA*dA*dT*dT*dG*dT*d[5mC]*dT*d[5mC]*dA*dT*kG*k[5mC]*k[5mC]) [Compound 1074461]
YAP1 (% UTC) (Yap1 mRNA [1]; [5]): 7 % UTC | YAP1 (% UTC) (Yap1 mRNA [1]; [8]): 9 % UTC | YAP1 (% UTC) (Yap1 mRNA [1]; Table 41, SNU-449 cells, 10,000 cells per well, free uptake, 2,000 nM modified oligonucleotide, approximately 48 hours, RTS36584, normalized to RIBOGREEN, Yap1 mRNA relative to untreated control cells): 12 % UTC | YAP1 (% UTC) (Yap1 mRNA [1]; [7]): 11 % UTC | YAP1 (% UTC) (Yap1 mRNA [1]; [9]): 11 % UTC | YAP1 (% UTC) (Yap1 mRNA [1]; Table 44 experiment, SNU-449 cells, 10,000 cells per well, free uptake, 2,000 nM, approximately 48 hours, RTS36584, Yap1 mRNA normalized to RIBOGREEN, relative to untreated control cells): 7 % UTC | YAP1 (% UTC) (Yap1 mRNA [1]; [10]): 9 % UTC | YAP1 (% UT) (Yap1 mRNA [1]; Table 46, Yap1 mRNA as percent of untreated control, SNU-449 cells, single dose): 14 % UT | YAP1 (% UT) (Yap1 mRNA [1]; [3]): 20 % UT | YAP1 (% UT) (Yap1 mRNA [1]; [6]): 10 % UT | YAP1 (% UT) (Yap1 mRNA [1]; Table 50, Yap1 mRNA remaining as percent of untreated control (UT), SNU-449 cells, single dose): 16 % UT | YAP1 (% UT) (Yap1 mRNA [1]; [11]): 5 % UT | YAP1 (% UT) (Yap1 mRNA [1]; Table 52, Yap1 mRNA, modified oligonucleotides targeting SEQ ID NO: 1 and 2): 15 % UT | YAP1 (% UT) (Yap1 mRNA [1]; [4]): 5 % UT

1009328 (kT*kA*kT*dA*dT*dT*dA*dG*dA*dG*dT*dA*dT*kG*kT*kG; antisense) [Compound 1009328]
YAP1 (% UT) (Yap1 mRNA [1]; [4]): 67 % UT

1198556 (antisense kT*kA*kT*dT*dA*dG*dA*dG*dT*dA*dT*dG*kT*kG*kG*e[5mC]) [Compound 1198556]
YAP1 (% UT) (Yap1 mRNA [1]; [6]): 25 % UT

1198895 (kG*kG*dA*dA*dA*dT*dT*dG*dT*d[5mC]*dT*k[5mC]*dA*kT*dG*k[5mC]; antisense) [Compound 1198895]
YAP1 (% UTC) (Yap1 mRNA [1]; [10]): 22 % UTC

1198411 (kA*dG*dG*dA*dT*dG*d[5mC]*dA*dT*dG*dG*kT*eT*kT*eT*kT; antisense) [Compound 1198411]
YAP1 (% UTC) (Yap1 mRNA [1]; [5]): 33 % UTC

1197221 (antisense kA*kG*kT*dA*dA*dG*dG*dT*dT*dT*d[5mC]*d[5mC]*d[5mC]*kA*kG*kA) [Compound 1197221]
YAP1 (% UT) (Yap1 mRNA [1]; [4]): 42 % UT

1198298 (kT*kA*kT*dT*dA*dG*dA*dG*dT*dA*dT*dG*kT*eG*kG*e[5mC]; antisense) [Compound 1198298]
YAP1 (% UT) (Yap1 mRNA [1]; [3]): 23 % UT

1200797 (kA*kT*kT*dA*dG*mA*dG*dT*dA*dT*dG*dT*dG*kG*k[5mC]*kA; antisense) [Compound 1200797]
YAP1 (% UT) (Yap1 mRNA [1]; [11]): 11 % UT
